Results as given in the supplement of paper PMC10307832.

What was measured:
Experiment in all cases: relative viability (nuclei count vs DMSO), 5 days (fraction); higher = more cells survive
COR-L 105 = test system: COR-L 105
Procedure, shortened: (§1)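 Relative viability is defined as nuclei in treated wells over nuclei in vehicle wells. Duplicate plates were run and medians reported. Lung cancer cell lines in 1536-well plates were dosed by pin tool one day after seeding, with one drug or with a fixed anchor-drug dose plus five library-drug doses (not always all listed) in √10 steps, and nuclei were counted after 5 days.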

COR-L23 = test system: COR-L23
Procedure, shortened: as §1

EKVX = test system: EKVX
Procedure, shortened: as §1

HARA = test system: HARA
Procedure, shortened: as §1

HCC-15 = test system: HCC-15
Procedure, shortened: as §1

HOP-62 = test system: HOP-62
Procedure, shortened: as §1

NCI-H1355 = test system: NCI-H1355
Procedure, shortened: as §1

NCI-H1395 = test system: NCI-H1395
Procedure, shortened: as §1

NCI-H1734 = test system: NCI-H1734
Procedure, shortened: as §1

NCI-H1755 = test system: NCI-H1755
Procedure, shortened: as §1

NCI-H1793 = test system: NCI-H1793
Procedure, shortened: as §1

NCI-H1993 = test system: NCI-H1993
Procedure, shortened: as §1

NCI-H2009 = test system: NCI-H2009
Procedure, shortened: as §1

NCI-H2170 = test system: NCI-H2170
Procedure, shortened: as §1

NCI-H2228 = test system: NCI-H2228
Procedure, shortened: as §1

NCI-H2342 = test system: NCI-H2342
Procedure, shortened: as §1

NCI-H2347 = test system: NCI-H2347
Procedure, shortened: as §1

NCI-H358 = test system: NCI-H358
Procedure, shortened: as §1

NCI-H647 = test system: NCI-H647
Procedure, shortened: as §1

NCI-H838 = test system: NCI-H838
Procedure, shortened: as §1

PC-14 = test system: PC-14
Procedure, shortened: as §1

SK-MES-1 = test system: SK-MES-1
Procedure, shortened: as §1

UMC-11 = test system: UMC-11
Procedure, shortened: as §1

C=C1C(=O)O[C@@H](CCCCCCCC)[C@@H]1C(=O)O [C-75] + CCNC(=O)c1noc(-c2cc(C(C)C)c(O)cc2O)c1-c1ccc(CN2CCOCC2)cc1 [Luminespib] (partner 0.01 µM)
relative viability (COR-L 105; first compound 0.08 µM): 0.688
relative viability (COR-L 105; first compound 0.253 µM): 0.584
relative viability (COR-L 105; first compound 0.8 µM): 0.817
relative viability (COR-L 105; first compound 2.53 µM): 0.815
relative viability (COR-L 105; first compound 8 µM): 0.638
relative viability (COR-L23; first compound 0.08 µM): 0.63
relative viability (COR-L23; first compound 0.253 µM): 0.706
relative viability (COR-L23; first compound 0.8 µM): 0.682
relative viability (COR-L23; first compound 2.53 µM): 0.66
relative viability (COR-L23; first compound 8 µM): 0.559
relative viability (EKVX; first compound 0.08 µM): 0.867
relative viability (EKVX; first compound 0.253 µM): 0.984
relative viability (EKVX; first compound 0.8 µM): 0.788
relative viability (EKVX; first compound 8 µM): 0.891
relative viability (HARA; first compound 0.08 µM): 0.684
relative viability (HARA; first compound 0.253 µM): 0.684
relative viability (HARA; first compound 0.8 µM): 0.683
relative viability (HARA; first compound 2.53 µM): 0.712
relative viability (HARA; first compound 8 µM): 0.612
relative viability (HCC-15; first compound 0.08 µM): 0.303
relative viability (HCC-15; first compound 0.253 µM): 0.271
relative viability (HCC-15; first compound 0.8 µM): 0.148
relative viability (HCC-15; first compound 2.53 µM): 0.345
relative viability (HCC-15; first compound 8 µM): 0.196
relative viability (HOP-62; first compound 0.08 µM): 0.858
relative viability (HOP-62; first compound 0.253 µM): 0.945
relative viability (HOP-62; first compound 0.8 µM): 0.902
relative viability (HOP-62; first compound 2.53 µM): 0.909
relative viability (HOP-62; first compound 8 µM): 0.801
relative viability (NCI-H1355; first compound 0.08 µM): 0.621
relative viability (NCI-H1355; first compound 0.253 µM): 0.668
relative viability (NCI-H1355; first compound 0.8 µM): 0.641
relative viability (NCI-H1355; first compound 2.53 µM): 0.394
relative viability (NCI-H1355; first compound 8 µM): 0.615
relative viability (NCI-H1395; first compound 0.08 µM): 0.613
relative viability (NCI-H1395; first compound 0.253 µM): 0.574
relative viability (NCI-H1395; first compound 0.8 µM): 0.713
relative viability (NCI-H1395; first compound 2.53 µM): 0.755
relative viability (NCI-H1395; first compound 8 µM): 0.686
relative viability (NCI-H1734; first compound 0.08 µM): 0.201
relative viability (NCI-H1734; first compound 0.253 µM): 0.192
relative viability (NCI-H1734; first compound 0.8 µM): 0.178
relative viability (NCI-H1734; first compound 2.53 µM): 0.184
relative viability (NCI-H1734; first compound 8 µM): 0.185
relative viability (NCI-H1755; first compound 0.08 µM): 0.384
relative viability (NCI-H1755; first compound 0.253 µM): 0.489
relative viability (NCI-H1755; first compound 0.8 µM): 0.465
relative viability (NCI-H1755; first compound 2.53 µM): 0.467
relative viability (NCI-H1755; first compound 8 µM): 0.416
relative viability (NCI-H1793; first compound 0.08 µM): 0.18
relative viability (NCI-H1793; first compound 0.253 µM): 0.148
relative viability (NCI-H1793; first compound 0.8 µM): 0.141
relative viability (NCI-H1793; first compound 2.53 µM): 0.264
relative viability (NCI-H1793; first compound 8 µM): 0.224
relative viability (NCI-H1993; first compound 0.08 µM): 0.988
relative viability (NCI-H1993; first compound 0.253 µM): 0.806
relative viability (NCI-H1993; first compound 0.8 µM): 0.787
relative viability (NCI-H1993; first compound 2.53 µM): 0.875
relative viability (NCI-H1993; first compound 8 µM): 0.83
relative viability (NCI-H2009; first compound 0.08 µM): 1.02
relative viability (NCI-H2009; first compound 0.253 µM): 1.05
relative viability (NCI-H2009; first compound 0.8 µM): 1
relative viability (NCI-H2009; first compound 2.53 µM): 0.999
relative viability (NCI-H2009; first compound 8 µM): 0.793
relative viability (NCI-H2170; first compound 0.08 µM): 0.551
relative viability (NCI-H2170; first compound 0.253 µM): 0.599
relative viability (NCI-H2170; first compound 0.8 µM): 0.785
relative viability (NCI-H2170; first compound 2.53 µM): 0.407
relative viability (NCI-H2170; first compound 8 µM): 0.669
relative viability (NCI-H2228; first compound 0.08 µM): 0.135
relative viability (NCI-H2228; first compound 0.253 µM): 0.161
relative viability (NCI-H2228; first compound 0.8 µM): 0.116
relative viability (NCI-H2228; first compound 2.53 µM): 0.181
relative viability (NCI-H2228; first compound 8 µM): 0.283
relative viability (NCI-H2342; first compound 0.08 µM): 0.798
relative viability (NCI-H2342; first compound 0.253 µM): 0.802
relative viability (NCI-H2342; first compound 0.8 µM): 0.689
relative viability (NCI-H2342; first compound 2.53 µM): 0.743
relative viability (NCI-H2342; first compound 8 µM): 0.68
relative viability (NCI-H2347; first compound 0.08 µM): 0.409
relative viability (NCI-H2347; first compound 0.253 µM): 0.474
relative viability (NCI-H2347; first compound 0.8 µM): 0.294
relative viability (NCI-H2347; first compound 8 µM): 0.446
relative viability (NCI-H358; first compound 0.08 µM): 0.338
relative viability (NCI-H358; first compound 0.253 µM): 0.247
relative viability (NCI-H358; first compound 0.8 µM): 0.314
relative viability (NCI-H358; first compound 2.53 µM): 0.355
relative viability (NCI-H358; first compound 8 µM): 0.224
relative viability (NCI-H647; first compound 0.08 µM): 0.114
relative viability (NCI-H647; first compound 0.253 µM): 0.256
relative viability (NCI-H647; first compound 0.8 µM): 0.183
relative viability (NCI-H647; first compound 2.53 µM): 0.117
relative viability (NCI-H647; first compound 8 µM): 0.13
relative viability (NCI-H838; first compound 0.08 µM): 0.325
relative viability (NCI-H838; first compound 0.8 µM): 0.296
relative viability (NCI-H838; first compound 2.53 µM): 0.286
relative viability (NCI-H838; first compound 8 µM): 0.238
relative viability (PC-14; first compound 0.08 µM): 0.158
relative viability (PC-14; first compound 0.253 µM): 0.171
relative viability (PC-14; first compound 0.8 µM): 0.151
relative viability (PC-14; first compound 2.53 µM): 0.142
relative viability (PC-14; first compound 8 µM): 0.152
relative viability (SK-MES-1; first compound 0.08 µM): 0.756
relative viability (SK-MES-1; first compound 0.253 µM): 0.73
relative viability (SK-MES-1; first compound 0.8 µM): 0.685
relative viability (SK-MES-1; first compound 2.53 µM): 0.652
relative viability (SK-MES-1; first compound 8 µM): 0.552
relative viability (UMC-11; first compound 0.08 µM): 0.992
relative viability (UMC-11; first compound 0.253 µM): 1.01
relative viability (UMC-11; first compound 0.8 µM): 1.03
relative viability (UMC-11; first compound 2.53 µM): 0.712
relative viability (UMC-11; first compound 8 µM): 0.742
